Broadly, the IC50 is the concentration at which inhibition is half-maximal. Lower therefore signals higher potency. Broadly, the CC50 is the concentration that lowers cell viability or growth by half.

The test system of one data set is HBV. The data set can be described thus: HBV DNA content in the supernatant of cell culture (real-time PCR). It counts as cell-based, hepatitis B virus (HBV). The note with it: Hepatitis B virus, HepG2.2.15, 192 h, inhibition of HBV DNA replication, HepG2.2.15 supernatant, 8 days. Here is the method:
(§1) Human hepatoblastoma cell line HepG2.2.15 stably transfected with full-length HBV (provided by Shanghai Institute of Materia Medica, Chinese Academy of Sciences)
(§2) HepG2.2.15 cells were cultured and passaged according to conventional methods. DMEM containing 10% (v/v) bovine serum and the selective antibiotic G418 was used as a medium, the cells were cultured in an incubator at 37° C. under 5% CO2 for 8 days (the medium was exchanged on the 4th day).
(§3) The test compounds were formulated with DMSO into a 40 mM stock solution, which was then prepared into a solution at the defined highest concentration using a DMEM medium containing 10% Hyclone™ Fetal Bovine Serum, followed by diluting the same; the positive drug was lamivudine, which was also prepared into a solution at the defined concentration with the DMEM medium containing 10% Hyclone™ Fetal Bovine Serum.
HepG2.2.15 cells were treated with compounds at different concentrations for 8 days (the medium was exchanged on the 4th day), and the supernatant was aspirated, and the HBV DNA contained in the mature virus particles in the supernatant was quantitated by using a real-time PCR method.
1) The supernatant DNA from a 96-well plate, 200 μl/well, was collected, wherein the contents in the duplicate wells were collected into a same EP tube, and centrifuged at 4000 rcf for 5 min, and the supernatant was collected;
2) 200 μl of the supernatant was added into a 1.5 ml EP tube, added with 20 μl of proteinase K and 200 μl of Buffer AL (Qiagen, DNeasy® Blood & Tissue Kit), vortexed to be mixed thoroughly, and incubated at 56° C. for 10 min;
3) 200 μl of ethanol was added and vortexed to be mixed thoroughly;
4) all the liquid obtained from step 3) was added into a DNeasy Mini spin column (Qiagen, DNeasy® Blood & Tissue Kit) placed in a 2 ml waste liquid collection tube, and centrifuged at 6000 rcf for 1 min, and the supernatant was discarded;
5) the DNeasy Mini spin column was placed in a new 2 ml waste liquid collection tube, added with 500 μl of Buffer AW1 (Qiagen, DNeasy® Blood & Tissue Kit), and centrifuged at 6000 rcf for 1 min, and the supernatant was discarded;
6) the DNeasy Mini spin column was placed in a new 2 ml waste liquid collection tube, added with 500 μl of Buffer AW2, (Qiagen, DNeasy® Blood & Tissue Kit), and centrifuged at 20000 rcf for 3 min, and the supernatant was discarded;
7) the DNeasy Mini spin column was placed in anew 1.5 ml EP tube, 50 μl of Buffer AE (Qiagen, DNeasy® Blood & Tissue Kit) was pipetted and directly applied onto the membrane of the DNeasy Mini spin column, which was then left at room temperature for 5 min, and centrifuged at 6000 rcf for 1 min to elute the DNA from the membrane, the DNeasy Mini spin column was discarded, and the DNA sample was collected and stored at −20° C.
1) Standard curve: 1e^7-1e^4 IU/ml, the sample amount was 1 μl, a blank well was set so as to check whether the reaction system is polluted or not;
2) 1 μl of a DNA sample was added in sequence;
3) Addition of enzyme and reaction buffer: two tubes of the reaction solution were first added into the enzyme, mixed well and centrifuged slightly, placed on ice, added with the sample, followed by addition of 19 μl of the enzyme reaction solution, wherein, during the addition, the DNA sample should be sure of not being touched to cause contamination;
4) the sample was sealed with a sealing film and centrifuged;
Stage 2: 10 cycles • Step 1: 93° C., 45 s • Step 2: 55° C., 1 min Stage 3: 45 cycles • Step 1: 93° C., 30 s • Step 2: 55° C., 45 s
Detection: data were collected after completing the step 2 (55° C., 45 s) of the stage 3.
The experimental data were processed by using the Origin software and IC50 was calculated.
In general terms: In qPCR the cycle at which signal appears reflects the starting amount.
Molecule `Cc1ccc(-c2nn(Cc3ccc(Cl)cc3)c(=O)c3cc(F)c(F)cc23)c(F)n1` [Compound V-2] came in with an IC50 of 0.3 µM.
On the same count and under the same terms, the figure for `N#Cc1ccc(Cn2nc(-c3ccc(NCC4CCOCC4)nc3F)c3ccccc3c2=O)cc1` [IV-25] is 1.2 µM; for `Cc1ccc(-c2nn(Cc3ccc(C#N)cc3)c(=O)c3cc(C)c(C)cc23)c(F)n1` [Compound V-11] it is 1.2 µM; for `Cc1ccc(-c2nn(Cc3ccc(Cl)cc3)c(=O)c3cc(C)c(C)cc23)c(F)n1` [Compound V-4] it is 1.3 µM.
Still for that read-out and setting: the figure for `CCOC(=O)CCCNc1ccc(-c2nn(Cc3ccc(C#N)cc3)c(=O)c3ccccc23)c(F)n1` [IV-35] is 1.23 µM; for `CC1(C)OCC(CNc2nc(F)c(-c3nn(Cc4ccc(C#N)cc4)c(=O)c4ccccc34)cc2Cl)O1` (stereo not shown) [IV-79] it is 0.347 µM.
Turning to `COC(=O)CCNc1ccc(-c2nn(Cc3ccc(C#N)cc3)c(=O)c3ccccc23)c(F)n1` [IV-72], the midpoint of inhibition, the IC50, lay at 1.72 µM.
The same measure, in the same setting: the figure for `CCNCCCNc1nc(F)c(-c2nn(Cc3ccc(C#N)cc3)c(=O)c3ccccc23)cc1Cl` [IV-54] is 0.47 µM.
The same measure, in the same setting: next, `CC(O)CNc1ccc(-c2nn(Cc3ccc(C#N)cc3)c(=O)c3ccccc23)c(F)n1` (stereo not shown) [IV-81]: 0.334 µM.
Still for that read-out and setting: next, `N#Cc1ccc(Cn2nc(-c3cc(Cl)c(NCCC(F)(F)F)nc3F)c3ccccc3c2=O)cc1` [IV-84]: under 0.098 µM; `[2H]C([2H])(c1ccc(Cl)cc1)n1nc(-c2ccc(F)nc2F)c2ccccc2c1=O` [Compound I-27]: 0.3 µM; `CN(C)c1ccc(-c2nn(Cc3ccc(Cl)cc3)c(=O)c3ccccc23)c(F)n1` [Compound I-13]: 1.2 µM.
On to `COC(=O)CCCNc1ccc(-c2nn(Cc3ccc(C#N)cc3)c(=O)c3ccccc23)c(F)n1` [IV-64], for which the IC50 amounted to 1.22 µM.
`[2H]C([2H])(c1ccc(-c2nn(Cc3ccc(Cl)cc3)c(=O)c3ccccc23)c(F)n1)N(C)C` [Compound I-37] gave an IC50 of 2.7 µM.
Same read-out and setting: the figure for `CC(O)CNc1nc(F)c(-c2nn(Cc3ccc(C#N)cc3)c(=O)c3ccccc23)cc1Cl` (stereo not shown) [IV-82] is 0.209 µM.
On the same count and under the same terms, next, `[2H]C(c1ccc(C#N)cc1)n1nc(-c2ccc(F)nc2F)c2ccccc2c1=O` (stereo not shown) [IV-17]: 0.13 µM; `N#Cc1ccc(Cn2nc(-c3ccc(NCCO)nc3F)c3ccccc3c2=O)cc1` [IV-76]: 0.202 µM; `N#Cc1ccc(Cn2nc(-c3cccnc3C#N)c3ccccc3c2=O)cc1` [IV-4]: 3.3 µM.
On the same count and under the same terms, next, `CC(C)(C)OC(=O)CCNc1nc(F)c(-c2nn(Cc3ccc(C#N)cc3)c(=O)c3ccccc23)cc1Cl` [IV-62]: 0.445 µM; `CCNCCNc1ccc(-c2nn(Cc3ccc(C#N)cc3)c(=O)c3ccccc23)c(F)n1` [IV-47]: 1.72 µM.

Tested on in the next data set: not listed separately
The data set can be described thus: MTT assay for cytotoxicity. It counts as cell-based, Human. The settings on record: human, HepG2.2.15 cells, half (50%) lethal concentration. Here is the method:
as §1, §2, §3
HepG2.2.15 cells were seeded at 5×10^3 cells/well in a 96-well plate, and cultured for eight days in the presence of the compounds according to the above method, and then 200 μl of the supernatant was taken out, followed by addition of the MTT solution. After 4 hours of culture, a lysate was added. After 12 hours of culture, the OD570 was measured on a microplate reader. By comparing with the absorbance of the control well, the percentage of viable cells was calculated, and CC50, the concentration required for the reduction of cell viability by 50%, was calculated.
For orientation: Formazan colour is commonly taken as a measure of viable cells.
Molecule `Cc1ccc(-c2nn(Cc3ccc(Cl)cc3)c(=O)c3cc(F)c(F)cc23)c(F)n1` [Compound V-2] registered a CC50 at 8 days of over 100 µM.
`N#Cc1ccc(Cn2nc(-c3ccc(NCC4CCOCC4)nc3F)c3ccccc3c2=O)cc1` [IV-25] had a CC50 at 8 days of 54.1 µM.
Still for that read-out and setting: the figure for `Cc1ccc(-c2nn(Cc3ccc(C#N)cc3)c(=O)c3cc(C)c(C)cc23)c(F)n1` [Compound V-11] is over 100 µM; for `Cc1ccc(-c2nn(Cc3ccc(Cl)cc3)c(=O)c3cc(C)c(C)cc23)c(F)n1` [Compound V-4] it is over 100 µM; for `CCOC(=O)CCCNc1ccc(-c2nn(Cc3ccc(C#N)cc3)c(=O)c3ccccc23)c(F)n1` [IV-35] it is over 100 µM.
Still for that read-out and setting: the figure for `CC1(C)OCC(CNc2nc(F)c(-c3nn(Cc4ccc(C#N)cc4)c(=O)c4ccccc34)cc2Cl)O1` (stereo not shown) [IV-79] is over 100 µM; for `COC(=O)CCNc1ccc(-c2nn(Cc3ccc(C#N)cc3)c(=O)c3ccccc23)c(F)n1` [IV-72] it is over 100 µM; for `CCNCCCNc1nc(F)c(-c2nn(Cc3ccc(C#N)cc3)c(=O)c3ccccc23)cc1Cl` [IV-54] it is 8.55 µM.
`CC(O)CNc1ccc(-c2nn(Cc3ccc(C#N)cc3)c(=O)c3ccccc23)c(F)n1` (stereo not shown) [IV-81] came in with a CC50 at 8 days of 65.2 µM.
Same read-out and setting: the figure for `N#Cc1ccc(Cn2nc(-c3cc(Cl)c(NCCC(F)(F)F)nc3F)c3ccccc3c2=O)cc1` [IV-84] is 63.5 µM; for `[2H]C([2H])(c1ccc(Cl)cc1)n1nc(-c2ccc(F)nc2F)c2ccccc2c1=O` [Compound I-27] it is over 100 µM.
As to `CN(C)c1ccc(-c2nn(Cc3ccc(Cl)cc3)c(=O)c3ccccc23)c(F)n1` [Compound I-13], the CC50 at 8 days worked out at 32.7 µM.
The same measure, in the same setting: the figure for `COC(=O)CCCNc1ccc(-c2nn(Cc3ccc(C#N)cc3)c(=O)c3ccccc23)c(F)n1` [IV-64] is over 100 µM; for `[2H]C([2H])(c1ccc(-c2nn(Cc3ccc(Cl)cc3)c(=O)c3ccccc23)c(F)n1)N(C)C` [Compound I-37] it is 95 µM.
On the same count and under the same terms, the figure for `CC(O)CNc1nc(F)c(-c2nn(Cc3ccc(C#N)cc3)c(=O)c3ccccc23)cc1Cl` (stereo not shown) [IV-82] is 71.9 µM.
On the same count and under the same terms, the figure for `[2H]C(c1ccc(C#N)cc1)n1nc(-c2ccc(F)nc2F)c2ccccc2c1=O` (stereo not shown) [IV-17] is over 100 µM.
Turning to `N#Cc1ccc(Cn2nc(-c3ccc(NCCO)nc3F)c3ccccc3c2=O)cc1` [IV-76], the CC50 at 8 days is over 100 µM.
For `N#Cc1ccc(Cn2nc(-c3cccnc3C#N)c3ccccc3c2=O)cc1` [IV-4], the CC50 at 8 days is over 100 µM.
Still for that read-out and setting: the figure for `CC(C)(C)OC(=O)CCNc1nc(F)c(-c2nn(Cc3ccc(C#N)cc3)c(=O)c3ccccc23)cc1Cl` [IV-62] is over 100 µM; for `CCNCCNc1ccc(-c2nn(Cc3ccc(C#N)cc3)c(=O)c3ccccc23)c(F)n1` [IV-47] it is 13 µM.

(Values after patent publication US11040952B2, “Phthalazinone compound, method for preparation thereof, pharmaceutical composition thereof, and use thereof” (SHANGHAI INSTITUTE OF MATERIA MEDICA, CHINESE ACADEMY OF …, priority 2017, dated 2021).)
